ChEMBL document CHEMBL4304836, “N-Trifluoromethylthiolated Sulfonimidamides and Sulfoximines: Anti-microbial, Anti-mycobacterial, and Cytotoxic Activity” (ACS Med Chem Lett, 2019)
≈ marks a conversion by molar mass, not a printed value.

What was measured:
Staphylococcus aureus = assay: Antibacterial activity against Staphylococcus aureus ATCC 25923 assessed as reduction in bacterial cell growth incubated for 24 hrs by two fold serial dilution; assay type: functional; details: ATCC 25923, 24 h
Bacillus subtilis = assay: Antibacterial activity against Bacillus subtilis ATCC 6051 assessed as reduction in bacterial cell growth incubated for 24 hrs by two fold serial dilution; assay type: functional; details: ATCC 6051, 24 h
Escherichia coli = assay: Antibacterial activity against Escherichia coli ATCC 25922 assessed as reduction in bacterial cell growth incubated for 24 hrs by two fold serial dilution; assay type: functional; details: ATCC 25922, 24 h
Pseudomonas aeruginosa = assay: Antibacterial activity against Pseudomonas aeruginosa ATCC 27853 assessed as reduction in bacterial cell growth incubated for 24 hrs by two fold serial dilution; assay type: functional; details: ATCC 27853, 24 h
HepG2 [1] = assay: Cytotoxicity against human HepG2 cells incubated for 6 hrs by MTT assay; assay type: functional, cell-based; details: HepG2, 6 h
HepG2 [2] = assay: Cytotoxicity against human HepG2 cells assessed as cell membrane leakage by measuring LDH released incubated for 6 hrs by spectrophotometry; assay type: functional; details: HepG2, 6 h
[3] = test system: Mycobacterium tuberculosis; assay: Antimycobacterial activity against Mycobacterium tuberculosis H37Rv assessed as reduction in bacterial cell growth incubated for 14 days by broth dilution method; assay type: functional; details: 336 h
[4] = test system: Mycobacteroides abscessus; assay: Antimycobacterial activity against Mycobacterium abscessus ATCC 19977 assessed as reduction in bacterial cell growth incubated for 3 days by broth dilution method; assay type: functional; details: ATCC 19977, 72 h

Row | Structure (SMILES) | MIC (Staphylococcus aureus) | MIC (Bacillus subtilis) | MIC (Escherichia coli) | MIC (Pseudomonas aeruginosa) | IC50 (HepG2 [1]) | MCC (HepG2 [2]) | MIC [3] | MIC [4]
1 | CS(=N)(=O)c1ccccc1 (configuration not stated) | > 512 µg/mL | > 512 µg/mL | > 512 µg/mL | > 512 µg/mL | > 100 µg/mL | 100 µg/mL |  | 
2 | Cc1ccc(S(=O)(=NSC(F)(F)F)N2CCCC2)cc1 (configuration not stated) | 64 µg/mL (≈ 197 µM) | 32 µg/mL (≈ 98.6 µM) | > 512 µg/mL | > 512 µg/mL |  |  |  | 
3 | O=S(=NSC(F)(F)F)(c1ccccc1)N1CCCC1 (configuration not stated) | 32 µg/mL (≈ 103 µM) | 8 µg/mL (≈ 25.8 µM) | 128 µg/mL (≈ 412 µM) | 512 µg/mL (≈ 1650 µM) | 15 µg/mL (≈ 48.3 µM) | 0.1 µg/mL | 4 to 8 µg/mL (≈ 12.9 to 25.8 µM) | > 64 µg/mL
4 | CCN(CC)S(=O)(=NSC(F)(F)F)c1ccc([N+](=O)[O-])cc1 (configuration not stated) | 32 to 64 µg/mL (≈ 89.5 to 179 µM) | 16 to 32 µg/mL (≈ 44.8 to 89.5 µM) |  | > 512 µg/mL |  |  | 16 to 32 µg/mL (≈ 44.8 to 89.5 µM) | 16 to 32 µg/mL (≈ 44.8 to 89.5 µM)
5 | O=S(=NSC(F)(F)F)(c1ccccc1)c1ccccc1 | 32 µg/mL (≈ 101 µM) | 16 µg/mL (≈ 50.4 µM) | 256 µg/mL (≈ 807 µM) | 256 µg/mL (≈ 807 µM) | 90 µg/mL (≈ 284 µM) | 1 µg/mL | 4 to 8 µg/mL (≈ 12.6 to 25.2 µM) | > 64 µg/mL
6 | Cc1ccc(S(=O)(=NSC(F)(F)F)N2CCCCC2)cc1 (configuration not stated) |  |  |  |  | 65 µg/mL (≈ 192 µM) | 0.1 µg/mL | 4 to 8 µg/mL (≈ 11.8 to 23.6 µM) | > 64 µg/mL
7 | CS(=O)(=NSC(F)(F)F)c1ccccc1 (configuration not stated) | 16 µg/mL (≈ 62.7 µM) | 16 µg/mL (≈ 62.7 µM) | 16 µg/mL (≈ 62.7 µM) | 128 µg/mL (≈ 501 µM) | 15 µg/mL (≈ 58.8 µM) | 0.1 µg/mL | 4 to 8 µg/mL (≈ 15.7 to 31.3 µM) | > 64 µg/mL
8 | O=[N+]([O-])c1ccc(S(=O)(=NSC(F)(F)F)N2CCCC2)cc1 (configuration not stated) | 32 µg/mL (≈ 90 µM) | 64 µg/mL (≈ 180 µM) | > 512 µg/mL | > 512 µg/mL |  |  | 16 to 32 µg/mL (≈ 45 to 90 µM) | 16 to 32 µg/mL (≈ 45 to 90 µM)
9 | O=S(=NSC(F)(F)F)(c1ccccc1)N1CCOCC1 (configuration not stated) | 32 µg/mL (≈ 98 µM) | 32 µg/mL (≈ 98 µM) | 128 µg/mL (≈ 392 µM) | 256 µg/mL (≈ 784 µM) |  |  |  | 
10 | N=S(=O)(c1ccc([N+](=O)[O-])cc1)N1CCCC1 (configuration not stated) |  |  |  |  |  |  | > 64 µg/mL | > 64 µg/mL
11 | O=[N+]([O-])c1ccc(S(=O)(=NSC(F)(F)F)N2CCOCC2)cc1 (configuration not stated) | 128 to 256 µg/mL (≈ 345 to 689 µM) | 128 to 256 µg/mL (≈ 345 to 689 µM) | 128 to 256 µg/mL (≈ 345 to 689 µM) | 256 µg/mL (≈ 689 µM) |  |  | 16 to 32 µg/mL (≈ 43.1 to 86.2 µM) | 32 to 64 µg/mL (≈ 86.2 to 172 µM)
12 | Cc1ccc(S(=O)(=NSC(F)(F)F)N2CCOCC2)cc1 (configuration not stated) |  |  |  |  |  |  | 8 to 16 µg/mL (≈ 23.5 to 47 µM) | 16 to 32 µg/mL (≈ 47 to 94 µM)
13 | CS(=O)(=NC(F)(F)F)c1ccccc1 (configuration not stated) | > 512 µg/mL | > 512 µg/mL | > 512 µg/mL | > 512 µg/mL | > 200 µg/mL |  | > 64 µg/mL | 
14 | O=[N+]([O-])c1ccc(S(=O)(=NSC(F)(F)F)N2CCCCC2)cc1 (configuration not stated) | 32 µg/mL (≈ 86.6 µM) | 64 µg/mL (≈ 173 µM) |  |  |  |  | > 64 µg/mL | 32 to 64 µg/mL (≈ 86.6 to 173 µM)
15 | N=S(=O)(c1ccccc1)N1CCOCC1 (configuration not stated) |  |  |  |  |  |  | > 64 µg/mL | > 64 µg/mL
16 | O=S(=NC(F)(F)F)(c1ccccc1)c1ccccc1 | > 512 µg/mL | > 512 µg/mL | > 512 µg/mL | > 512 µg/mL | 200 µg/mL (≈ 701 µM) | 200 µg/mL | > 64 µg/mL | 
